Two compounds from patent publication US20230295116A1, “PROTEASOME ENHANCERS AND USES THEREOF” (Board of Trustees of Michigan State University, priority 2020, published 2023) can be followed below.

Experiment [1] concerns the target T1, human constitutive 20S proteasome (Homo sapiens, UniProt P25787+P60900).
T1 construct: purchased Boston Biochem, Inc. (Cambridge, MA)
Kind of experiment: Fluorogenic peptide degradation 20S proteasome activity assay. The experiment is classed as biochemical. To be noted: for AC200 (doubling of 20S activity): combination of the three fluorogenic peptide substrates (CT-L, T-L, Casp-L). The source says:
These substrates were a chymotryptic-like (CT-L), a trypsin-like (T-L) and a caspase-like (Casp-L) substrate, one for each of the catalytic sites of the proteasome. It has been shown that the proteasome’s active sites allosterically regulate each other in the presence of their individual substrates. Therefore, a combination of the three probes to represent the overall activity of a 20S activator more accurately in a system in which all catalytic sites are interacting.
The 20S activity of astemizoles and N-acylastemizole (compound 2) was further assessed in the fluorogenic peptide assay, using each of the individual substrates as well as the combination of the three (FIG. 1B). […] The N-acylated analog achieved similar max fold increases for each substrate/combination (>800% increase over vehicle).
Activity assays were carried out in a 100 µL reaction volume. Different concentrations (1-80 µM) of test compounds were added to a black flat/clear bottom 96-well plate containing 1 nM of human constitutive 20S proteasome, in 50 mM Tris-HCl at pH 7.8, 100 mM NaCl and allowed to incubate for 15 min at 37° C. Fluorogenic substrates were then added and the enzymatic activity measured at 37° C. on a SpectraMax M5e spectrometer by measuring the change in fluorescence unit per minute for 1 hour at 380-460 nm. The fluorescence units for the vehicle control were set at a 100%, and the ratio of drug-treated sample set to that of vehicle control was used to calculate the fold change in enzymatic activity. The fluorogenic substrates used were one of the following: Suc-LLVY-AMC (CT-L activity, 20 µM), Z-LLE-AMC (Casp-L activity, 20 µM), Boc-LRR-AMC (T-L activity, 40 µM) or a combination of the three substrates each at 6.67 µM.

The subject of experiment [2] is MYC-mediated gene transcription. Kind of experiment: Myc reporter assay (luciferase). It counts as cell-based. As to conditions: Homo sapiens, HCT-116; HCT116 Myc-Luc reporter cells, 16 hours, n=3; read-out: EC50 for inhibition of c-MYC. How it is done: (§1) Firefly luminescence was measured using the One-Step Luciferase Assay System from BPS Biosciences.
as §1

In the next experiment the test system is NF-kB transcription. Kind of experiment: NF-κB reporter assay (luciferase). The experiment is classed as cell-based. As to conditions: Homo sapiens; HCT-116 NF-kappaB-luc reporter cells, TNF-alpha 2 ng/mL, 16 hours, n=3; read-out: EC50 for inhibition of NF-kB transcription. How it is done: as §1

On to `COc1ccc(CCN2CCC(Nc3nc4ccccc4n3Cc3ccc(F)cc3)CC2)cc1` [Compound 1, astemizole, reference compound], for which the “activation of catalytic sites of the 20S proteasome” value in experiment [1] (CT-L, T-L and Casp-L substrates) is on record as “activates all three catalytic sites”. Moreover, in experiment [1], the “AC200 (doubling of 20S activity)” value is reported as 3.3 µM.

Turning to `COc1ccc(CC(=O)N2CCC(Nc3nc4ccccc4n3Cc3ccc(F)cc3)CC2)cc1` [Compound 2, 1-(4-((1-(4-fluorobenzyl)-1H-benzo[d]imidazol-2-yl)amino)piperidin-1-yl)-2-(4-methoxyphenyl)ethan-1-one], the EC50 in experiment [2] was 19 µM; in the experiment on NF-kB transcription, 18 µM. Moreover, in experiment [1], the “AC200 (doubling of 20S activity)” value was found to be 3.9 µM. Further, the “max fold increase (increase over vehicle)” value in experiment [1] (each substrate/combination) is reported as > 800%.
